Where two headings read alike, the source gives them in different places.
What was measured:
[1] = molecular target: T1, BAG3 full length (Homo sapiens, UniProt O95817); test: SPR binding on full-length BAG3; settings: Biacore T200, 25 °C, 1:1 model; for Kd: read-out: BAG3 FULL KD ± SD
T1 construct: purchased Novus Biologicals (Littleton, Colorado)
Experimental: (§1) Recombinant human BAG3 protein (Bcl2‐associated athanogene 3) was obtained from Novus Biologicals (Littleton, Colorado), while the BAG3 domain (BAG3‐BD) was sourced from ARETA International S.r.l. (Gerenzano, Italy). We used (Z)‐ethyl 2‐(5‐(3,4‐dihydroxybenzylidene)‐2,4‐dioxothiazolidin‐3‐yl)acetate (LK4), a BAG3 inhibitor previously identified by our group.^[ [13] ^] SPR spectroscopy was performed using a Biacore T200 optical biosensor with CM5 sensor chips (Cytiva, Marlborough, USA) to assess the affinity of synthesized molecules for BAG3 and BAG‐BD. BAG3 and BAG‐BD were immobilized on CM5 sensor chip using standard amine‐coupling protocol.^[ [15] ^, [42] ^, [43] ^] BAG3 protein (0.067 μg μL^−1 in 10 mM CH3COONa, pH 4.5) was immobilized at a flow rate of 10 μL min^−1, achieving a surface density of 14 kRU, while BAG3‐BD (0.38 μg μL^−1 in 10 mM CH3COONa, pH 4.5) reached a density of 4 kRU. For the experiments, BAG3 and BAG‐BD surfaces, as well as an unmodified reference surface, were prepared for simultaneous analysis. Compounds 1–10 and LK4 were initially dissolved to 10 mM in 100% DMSO, then diluted 1:20 (v/v) in PBS‐P buffer (0.2 M phosphate buffer, 27 mM KCl, 1.37 M NaCl, 0.5% surfactant P20) resulting in a final DMSO concentration of 5.0%. The compounds were injected in a concentration series (1:2 dilution, 10 different concentrations) ranging from 0 to 100 μM, using 96‐well plates. SPR experiments were conducted at 25 °C with a flow rate of 20 μL min^−1, featuring a 90 s association phase followed by a 400 s dissociation phase. Changes in mass, recorded as resonance units (RU), were used to quantify binding responses, while K D values were determined using Biaevaluation software by globally fitting the double‐referenced association and dissociation data to a 1:1 interaction model. (See Figure S43–S56, Supporting Information).

[2] = molecular target: T2, BAG3-BD (Homo sapiens, UniProt O95817); test: SPR binding on BAG3 BAG domain; settings: Biacore T200, 25 °C, 1:1 model; for Kd: read-out: BAG3–BD KD ± SD
T2 construct: the BAG3 domain (BAG3‐BD) was sourced from ARETA International S.r.l; (Gerenzano, Italy); purchased ARETA International S.r.l
T2 sequence (O95817 421-498 limits assumed): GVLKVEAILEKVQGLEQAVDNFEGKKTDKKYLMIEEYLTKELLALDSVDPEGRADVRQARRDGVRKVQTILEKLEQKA
Experimental: as §1

[3] = tested on: HeLa cells; test: MTT cell viability, HeLa; assay type: cell-based
Experimental: (§2) Human cell lines of lung adenocarcinoma (A549), cervical carcinoma (HeLa), malignant melanoma (A375), breast adenocarcinoma (MCF7), and immortalized human keratinocytes (HaCaT) were cultured in high‐glucose DMEM supplemented with FBS (10%, v/v), glutamine (2 mM L^−1), penicillin (100 U mL^−1), and streptomycin ([…]). Cells were maintained at 37 °C in a humidified 5% CO2 atmosphere and subcultured every 2 days to maintain logarithmic growth. The human cell lines were kindly donated by Prof. Ornella Moltedo, Department of Pharmacy, University of Salerno.^[ [15] ^, [44] ^]
Cell viability was evaluated using a colorimetric assay to measure mitochondrial metabolic activity through the reduction of 3‐[4,5‐dimethylthiazol‐2,5‐diphenyl‐2H‐tetrazolium bromide (MTT) to purple formazan. Stock solutions of SP18 and compounds 1, 2, 5–8 (50 mM in DMSO) were stored at −20 °C in the dark and diluted immediately before addition to the sterile culture medium. The final concentration of DMSO for the tested compounds was 0.1%, which was consistent with the percentage of DMSO used in the negative control. A549 (3.5 × 10³ cells well^−1), HeLa (3.5 × 10³ cells well^−1), A375 (5.0 × 10³ cells well^−1), and MCF7 (3.5 × 10³ cells well^−1) cells were seeded in triplicate in 96‐well plates. After 24 h to allow for attachment, cells were treated with various concentrations of the compounds (10 and 50 µM), using 0.1% (v/v) DMSO as a negative control and 10% (v/v) DMSO as a positive control following treatment, 20 μL of MTT solution (5 mg mL^−1 in PBS) were added to each well, and cells were incubated for 3 h at 37 °C. Formazan crystals were then dissolved in 100 μL of a buffer containing 50% (v/v) N,N‐dimethylformamide and 20% SDS (pH 4.5), and absorbance was measured at 570 nm using a Multiskan GO Microplate Spectrophotometer (Thermo Fisher Scientific, USA).^[ [44] ^] […] IC50 values, defined as the concentration causing 50% inhibition of cell survival, were calculated and compared to DMSO‐treated controls using GraphPad Prism 8.0 software via nonlinear regression. IC50 values for SP18 and compound 2 were also determined in HaCaT cells (5.0 × 10³ cells well^−1) after 48 or 72 h of treatment.^[ [15] ^]

[4] = tested on: HaCaT cells; test: MTT cell viability, HaCaT healthy keratinocytes; assay type: cell-based, human
Experimental: as §2
Cell viability was evaluated using a colorimetric assay to measure mitochondrial metabolic activity through the reduction of 3‐[4,5‐dimethylthiazol‐2,5‐diphenyl‐2H‐tetrazolium bromide (MTT) to purple formazan. Stock solutions of SP18 and compounds 1, 2, 5–8 (50 mM in DMSO) were stored at −20 °C in the dark and diluted immediately before addition to the sterile culture medium. The final concentration of DMSO for the tested compounds was 0.1%, which was consistent with the percentage of DMSO used in the negative control. […] Formazan crystals were then dissolved in 100 μL of a buffer containing 50% (v/v) N,N‐dimethylformamide and 20% SDS (pH 4.5), and absorbance was measured at 570 nm using a Multiskan GO Microplate Spectrophotometer (Thermo Fisher Scientific, USA).^[ [44] ^] […]

[5] = tested on: HeLa cells; test: Cell cycle / hypodiploid nuclei by PI flow cytometry; assay type: cell-based, human
Experimental: Hypodiploid nuclei were analyzed by propidium iodide (PI) staining using flow cytometry. HeLa cells (1 × 10^5 cells well^−1) were cultured in 12‐well plates and allowed to adhere for 24 h. The medium was then refreshed, and cells were treated with SP18 (0.75, 1.5, 3, 6, and 12 µM) for 48 h or compound 2 (10, 30, and 50 µM) for 72 h, with 0.1% (v/v) DMSO as a control. The final concentration of DMSO for the tested compounds was 0.1%, which is consistent with the percentage of DMSO used in the negative control. Following treatment, the culture medium was replaced, and cells were washed twice with PBS before being resuspended in 500 μL of a solution containing 50 mg L^−1 PI, 0.1% (w/v) sodium citrate, and 0.1% Triton X‐100. To include both dead and live cells in the analysis, the culture medium and PBS washes were centrifuged, and the resulting cell pellets were combined with the main cell suspension. Cells were then incubated at 4 °C for 30 min in the dark, and nuclei were analyzed using a Becton Dickinson FACScan flow cytometer (Franklin Lakes, USA) with Cell Quest software. DNA content was recorded, and cellular debris was excluded by adjusting the forward scatter threshold. The percentage of cells in the hypodiploid region (sub‐G0) and those in the G1, S, and G2 phases were calculated.^[ [45] ^] (See Figure S57–S58, Supporting Information).

T1 sequence (O95817 whole entry): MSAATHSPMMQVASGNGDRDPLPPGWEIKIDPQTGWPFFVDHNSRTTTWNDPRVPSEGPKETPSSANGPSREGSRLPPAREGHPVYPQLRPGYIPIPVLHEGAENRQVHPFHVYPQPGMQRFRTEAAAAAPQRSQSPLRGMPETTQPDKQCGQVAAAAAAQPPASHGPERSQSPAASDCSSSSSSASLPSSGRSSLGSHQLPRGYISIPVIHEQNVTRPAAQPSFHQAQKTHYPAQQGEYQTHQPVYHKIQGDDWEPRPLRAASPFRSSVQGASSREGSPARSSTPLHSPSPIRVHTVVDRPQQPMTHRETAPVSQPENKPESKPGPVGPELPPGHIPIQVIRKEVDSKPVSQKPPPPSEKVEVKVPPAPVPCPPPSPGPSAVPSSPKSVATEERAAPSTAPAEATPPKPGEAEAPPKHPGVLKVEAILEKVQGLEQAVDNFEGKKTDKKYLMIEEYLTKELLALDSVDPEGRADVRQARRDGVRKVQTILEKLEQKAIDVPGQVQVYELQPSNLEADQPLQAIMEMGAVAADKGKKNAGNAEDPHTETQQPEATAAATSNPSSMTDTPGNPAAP

Compound	Kd [1] [µM]	Kd [2] [µM]	cytotoxicity against HeLa cells (screen) ([3]; 10 and 50 µM, 72 h)	IC50 ([3]; Homo sapiens, HeLa, 48 h of treatment, read-out: IC50 against HeLa) [µM]	IC50 ([4]; Homo sapiens, HaCaT, 48 h, seven concentrations, MTT) [µM]	effect on cell cycle / hypodiploid nuclei ([5]; 48 h, 0.75 to 12 µM)	BAG3 FULL KD ± SD [1]	BAG3–BD KD ± SD [2]	mortality at 50 µM ([3]; Homo sapiens, HeLa, 50 µM, 72 h) [%]	IC50 ([3]; Homo sapiens, HeLa, 72 h of exposure, read-out: IC50 on HeLa cells) [µM]	cytotoxicity on healthy HaCaT cells ([4]; 72 h, up to 70 µM (highest concentration tested))	effect on cell cycle / hypodiploid nuclei ([5]; 72 h, 10, 30 and 50 µM)
O=C(OCc1cn(Cc2ccc(C(=O)c3ccccc3)cc2)nn1)c1cccc([N+](=O)[O-])c1 [SP18]	36 ± 0.85	43.5 ± 5.09	significant cytotoxicity	14.8 ± 1.34	22.1 ± 0.67	induces hypodiploid nuclei formation in a concentration‐dependent manner and causes an S‐phase block	–	–	–	–	–	–
O=C(OCc1cn(Cc2ccc3c(c2)C(=O)c2ccccc2C3=O)nn1)c1cccc([N+](=O)[O-])c1 [Compound 2, (1‐((9,10‐Dioxo‐9,10‐dihydroanthracen‐2‐yl)methyl)‐1H‐1,2,3‐triazol‐4‐yl)methyl 3‐nitrobenzoate]	1.04 ± 0.03	0.38 ± 0.05	–	–	–	–	low micromolar range	low micromolar range	~70	40.8 ± 5.5	no significant cytotoxicity	induces hypodiploid nuclei formation in a concentration‐dependent manner

Source: PMC12530843, “Identification of a New Interesting BAG3 Modulator Able to Disrupt Cancer‐Related Pathways” (Chemmedchem, 2025)
